Experimental data as given in ChEMBL document CHEMBL5143668, “Modular synthesis of 2,4-diaminoanilines as CNS drug-like non-covalent inhibitors of asparagine endopeptidase” (Bioorg Med Chem, 2022).

Legend:
[1] = Dissociation constant, pKa of compound; assay type: physicochemical
Legumain (Homo sapiens) = molecular target: T1, Legumain (Homo sapiens) (UniProt Q99538); test: Inhibition of recombinant human Asparagine endopeptidase at 10 uM preincubated for 5 mins followed by Z-Ala-Ala-Asn-AMC substrate addition measured after 2 hrs by microplate reader relative to control
T1 sequence (whole entry): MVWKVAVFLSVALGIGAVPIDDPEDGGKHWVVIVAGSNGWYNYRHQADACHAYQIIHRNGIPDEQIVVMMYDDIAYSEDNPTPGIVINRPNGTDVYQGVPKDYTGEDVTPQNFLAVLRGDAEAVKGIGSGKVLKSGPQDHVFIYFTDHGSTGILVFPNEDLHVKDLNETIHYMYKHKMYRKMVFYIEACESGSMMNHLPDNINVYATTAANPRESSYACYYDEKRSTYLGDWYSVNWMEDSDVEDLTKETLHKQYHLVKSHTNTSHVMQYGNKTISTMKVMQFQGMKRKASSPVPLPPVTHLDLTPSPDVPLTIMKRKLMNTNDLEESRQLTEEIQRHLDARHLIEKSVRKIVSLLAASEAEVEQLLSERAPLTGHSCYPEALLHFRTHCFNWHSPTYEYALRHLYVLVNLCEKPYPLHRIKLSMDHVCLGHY

Legumain = molecular target: T2, Legumain (Homo sapiens, UniProt Q99538); test: Inhibition of recombinant human Asparagine endopeptidase preincubated for 5 mins followed by Z-Ala-Ala-Asn-AMC substrate addition measured after 2 hrs by microplate reader
T2 sequence (Q99538 whole entry): T1 sequence (whole entry)

L929 = test: Cytotoxicity of mouse L929 cells assessed as reduction in cell viability at 5 to 500 nM measured after 24 hrs by MTT assay; assay type: toxicity, cell-based; conditions: l929, 24 h, 0.5 µM, dose 5-500 nM

| Structure (SMILES) | pKa [1] | inhibition (Legumain (Homo sapiens)) [%] | IC50 (Legumain) [nM] | Activity (L929) |
| --- | --- | --- | --- | --- |
| Nc1ccc(N2CCOCC2)cc1N1CCC[C@H]1CO | 6.96 | 48 | > 5000 | – |
| CCOC(=O)C1CCN(c2ccc(N)c(N3CCC(C(=O)OCC)CC3)c2)CC1 | 10.6 | 53 | 4830 | Non-Toxic |
| Nc1ccc(N2CCSCC2)cc1N1CCSCC1 | 10.1 | 81 | 757 | – |
| Nc1ccc(N2CCOCC2)cc1N1CCCC1 | 6.96 | 42 | > 5000 | – |
| Nc1ccc(N2CCOCC2)cc1N1CCSCC1 | 8.54 | 89 | 498 | – |

The next lines start with results.

| pKa [1] | inhibition (Legumain (Homo sapiens)) [%] | IC50 (Legumain) [nM] | Structure (SMILES) | Activity (L929) |
| --- | --- | --- | --- | --- |
| 4.05 | 47 | > 5000 | Nc1ccc(N2CCOCC2)cc1Cl | – |
| 8.62 | 100 | 547 | Nc1ccc(N2CCOCC2)cc1N1CCC2(CC1)OCCO2 | – |
| 5.61 | 43 | > 5000 | Nc1ccc(N2CCSCC2)cc1Cl | – |
| 8.54 | 100 | 844 | Nc1ccc(N2CCOCC2)cc1N1CCOCC1 | Non-Toxic |
| 8.8 | 98 | 89 | CCOC(=O)C1CCN(c2cc(N3CCOCC3)ccc2N)CC1 | Non-Toxic |
